Reference: patent publication US8691761B2, “Somatostatin receptor 2 antagonists” (priority 2006, dated 2014)
Read-outs that look alike come from different tables or passages of the source. Bridge positions count the residues as written; N and C are the ends. Square brackets hold non-standard residues; d marks the D form. Peptide text beside a SMILES is read from it. * marks the point of attachment. ξ: configuration not given here. Phe(4-NO2) = N[C@@H](Cc1ccc([N+](=O)[O-])cc1)C(=O)O; dPhe(4-NHCONH2) = NC(=O)Nc1ccc(C[C@@H](N)C(=O)O)cc1; Phe(4-NHCONH2) = NC(=O)Nc1ccc(C[C@H](N)C(=O)O)cc1; dTrp(5-F) = N[C@H](Cc1c[nH]c2ccc(F)cc12)C(=O)O; Phe(4-Cl) = N[C@@H](Cc1ccc(Cl)cc1)C(=O)O; ξDihydroorotoyl = O=C1CC(C(=O)*)NC(=O)N1; 2Nal = N[C@@H](Cc1ccc2ccccc2c1)C(=O)O; ξPhe(4-NH2) = Nc1ccc(CC(N)C(=O)O)cc1

Legend:
hSSTR1 = target: T1, hSSTR1 (Homo sapiens, UniProt P30872); assay: Receptor autoradiography, displacement of 125I-[Leu8,D-Trp22,Tyr25]-SRIF-28 from membrane pellet sections; type: binding
T1 construct: expressed in transfected cells; host or cells: CHO-K1 or CCL39 cells
T1 sequence (P30872 whole entry): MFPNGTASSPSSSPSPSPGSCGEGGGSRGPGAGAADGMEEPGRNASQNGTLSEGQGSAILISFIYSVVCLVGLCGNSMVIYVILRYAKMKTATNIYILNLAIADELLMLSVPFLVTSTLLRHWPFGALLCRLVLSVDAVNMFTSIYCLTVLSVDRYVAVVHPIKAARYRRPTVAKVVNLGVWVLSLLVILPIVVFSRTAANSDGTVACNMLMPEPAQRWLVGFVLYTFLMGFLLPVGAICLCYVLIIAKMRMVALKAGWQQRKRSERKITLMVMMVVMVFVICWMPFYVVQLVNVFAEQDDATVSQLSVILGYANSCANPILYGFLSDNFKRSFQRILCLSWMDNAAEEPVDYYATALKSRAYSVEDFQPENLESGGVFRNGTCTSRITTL
Method: (§1) Generally, recombinant cells expressing the receptor are washed and homogenized to prepare a crude protein homogenate in a suitable buffer. In a typical assay, an amount of protein from the cell homogenate is placed into a small volume of an appropriate assay buffer at an appropriate pH. Candidate substances, such as potential SRIF agonists and antagonists, are added to the admixture in convenient concentrations, and the interaction between the candidate substance and the receptor polypeptide is monitored.
(§2) In vitro Bioassay: The effects of the various somatostatin analogs were tested in vitro for their ability to bind to isolated cloned receptors expressed on CHO-K1 cells and CCL39 cells. The molecular cloning of the genes encoding multiple somatostatin receptor subtypes permitted the individual expression of these receptors in mammalian cells and the characterization of their respective pharmacological profiles.
(§3) CHO-K1 cells were grown in Ham's F-12 medium, and CCL39 cells were grown in Dulbecco's modified Eagle's medium/Ham's F-12(1:1) mix, supplemented with 10% fetal bovine serum, 100 U/ml penicillin and 100 μg/ml streptomycin, in humidified air containing 5% CO2 at 37° C. Cells were washed twice with and scraped into ice-cold 0.05 M Tris-HCl (pH 7.4), collected by centrifugation, and homogenized using a rotor/stator/system in the same buffer. After centrifugation at 120 g for 5 min at 4° C., the supernatant was collected and centrifuged again at 48,000 g for 30 min at 4° C. The resulting pellet was resuspended in ice-cold Tris buffer, transferred into a microfuge tube, and centrifuged at 20,000 g for 15 min at 4° C. After withdrawal of the supernatant, the membrane pellet was stored at −80° C.
(§4) Receptor autoradiography was performed on 20 μm thick cryostat sections of the membrane pellets, mounted on microscope slides, and then stored at −20° C. […] Increasing concentrations of the unlabeled peptide were used ranging from 0.1-1000 nM. […] IC50 values were calculated after quantification of the data using a computer-assisted image processing system as known in this art.
(§5) The numbers in parentheses indicate the number of times the particular binding test was carried out.
(§6) Receptor autoradiography. Cell membrane pellets were prepared as previously described, and stored at −80° C. Receptor autoradiography was performed on 20-μm thick cryostat (Microm HM 500, Walldorf, Germany) sections of the membrane pellets, mounted on microscope slides, and then stored at −20° C. […] After a brief dip in distilled water to remove excess salts, the sections were dried quickly and exposed for 1 week to Kodak BioMax MR film. IC50 values were calculated after quantification of the data using a computer-assisted image processing system as described previously. […] (Reubi, J. C. “In vitro identification of vasoactive intestinal peptide receptors in human tumors: Implications for tumor imaging.” J. Nucl. Med. 1995, 36, 1846-1853).
(§7) To investigate their ssts binding properties, the peptides were tested for their ability to bind to cryostat sections from membrane pellets of cells expressing the five human ssts (Table 3).

hSSTR2 = target: T2, hSSTR2 (Homo sapiens, UniProt P30874); assay: as above; type: binding
T2 construct: expressed in transfected cells; host or cells: CHO-K1 or CCL39 cells
T2 sequence (P30874 whole entry): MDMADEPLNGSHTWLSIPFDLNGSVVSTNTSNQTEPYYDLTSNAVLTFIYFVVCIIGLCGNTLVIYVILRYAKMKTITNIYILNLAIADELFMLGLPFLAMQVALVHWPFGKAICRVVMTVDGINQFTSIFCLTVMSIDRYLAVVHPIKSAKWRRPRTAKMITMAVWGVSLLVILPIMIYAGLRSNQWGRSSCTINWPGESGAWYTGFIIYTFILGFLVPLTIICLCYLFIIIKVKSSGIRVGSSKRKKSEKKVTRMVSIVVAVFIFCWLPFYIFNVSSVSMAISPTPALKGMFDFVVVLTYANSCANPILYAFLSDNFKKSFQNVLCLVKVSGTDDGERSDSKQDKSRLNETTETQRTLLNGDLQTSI
Method: as §1, §2, §3, §4, §5, §6, §7

hSSTR3 = target: T3, hSSTR3 (Homo sapiens, UniProt P32745); assay: as above; type: binding
T3 construct: expressed in transfected cells; host or cells: CHO-K1 or CCL39 cells
T3 sequence (P32745 whole entry): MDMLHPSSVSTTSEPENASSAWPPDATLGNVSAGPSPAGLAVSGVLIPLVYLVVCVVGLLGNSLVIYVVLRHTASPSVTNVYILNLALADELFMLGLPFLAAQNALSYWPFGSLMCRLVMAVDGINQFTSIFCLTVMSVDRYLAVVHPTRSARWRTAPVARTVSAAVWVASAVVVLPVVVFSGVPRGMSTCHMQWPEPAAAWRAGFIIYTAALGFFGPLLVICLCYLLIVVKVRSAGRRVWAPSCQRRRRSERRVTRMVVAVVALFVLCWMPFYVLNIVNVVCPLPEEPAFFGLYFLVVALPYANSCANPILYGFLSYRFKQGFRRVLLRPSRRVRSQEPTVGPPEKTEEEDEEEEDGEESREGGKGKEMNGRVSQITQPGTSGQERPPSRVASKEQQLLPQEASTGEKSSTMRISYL
Method: as §1, §2, §3, §4, §5, §6, §7

hSSTR4 = target: T4, hSSTR4 (Homo sapiens, UniProt P31391); assay: as above; type: binding
T4 construct: expressed in transfected cells; host or cells: CHO-K1 or CCL39 cells
T4 sequence (P31391 whole entry): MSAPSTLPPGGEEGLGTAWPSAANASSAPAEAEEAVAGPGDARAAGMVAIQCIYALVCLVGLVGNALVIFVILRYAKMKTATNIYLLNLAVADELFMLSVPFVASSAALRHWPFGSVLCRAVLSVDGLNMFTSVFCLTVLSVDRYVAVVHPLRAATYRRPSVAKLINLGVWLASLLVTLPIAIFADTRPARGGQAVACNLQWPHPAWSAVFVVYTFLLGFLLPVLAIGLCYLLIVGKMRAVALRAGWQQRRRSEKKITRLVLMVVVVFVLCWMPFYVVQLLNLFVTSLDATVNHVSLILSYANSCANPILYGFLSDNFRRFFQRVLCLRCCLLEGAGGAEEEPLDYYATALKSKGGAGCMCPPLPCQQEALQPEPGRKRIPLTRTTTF
Method: as §1, §2, §3, §4, §5, §6, §7

hSSTR5 = target: T5, hSSTR5 (Homo sapiens, UniProt P35346); assay: as above; type: binding
T5 construct: expressed in transfected cells; host or cells: CHO-K1 or CCL39 cells
T5 sequence (P35346 whole entry): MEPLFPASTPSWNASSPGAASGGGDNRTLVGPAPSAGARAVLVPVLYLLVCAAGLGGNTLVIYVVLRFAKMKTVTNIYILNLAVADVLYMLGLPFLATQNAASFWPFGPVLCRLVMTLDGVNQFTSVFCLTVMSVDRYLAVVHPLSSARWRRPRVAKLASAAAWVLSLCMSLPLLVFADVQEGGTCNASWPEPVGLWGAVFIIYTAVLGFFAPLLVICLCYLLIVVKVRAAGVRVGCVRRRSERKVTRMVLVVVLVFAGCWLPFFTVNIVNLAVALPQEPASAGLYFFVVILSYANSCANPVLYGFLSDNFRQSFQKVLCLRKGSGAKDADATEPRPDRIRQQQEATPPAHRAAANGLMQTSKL
Method: as §1, §2, §3, §4, §5, §6, §7

human sst2A receptor = target: T6, human sst2A receptor (Homo sapiens, UniProt P30874); assay: Immunofluorescence-based sst2 internalization assay in HEK-sst2 cells; type: cell-based; settings: for sst2-internalization tested in vitro in HEK-sst2 cells (function): n ≧ 2
T6 construct: expressed in transfected cells; host or cells: HEK293 (HEK-sst2)
T6 sequence (P30874 whole entry): as the sequence (P30874 whole entry) above
Method: Immunofluorescence-based sst2 Internalization Assay. Immunofluorescence microscopy-based internalization assay for sst2 was performed with HEK-sst2 using the sst2-specific antibody R2-88 as described elsewhere herein. HEK-sst2 cells were treated either with vehicle alone, the sst2 agonist [Tyr^3]-octreotide at a concentration of 100 nM, [Tyr^3]-octreotide at a concentration of 100 nM in the presence of an excess of the SRIF analogues to be tested (100 times the concentration of [Tyr^3]-octreotide), or with the SRIF analogues to be tested alone at a concentration of 10 μM, and then processed for immunofluorescence microscopy as described previously.

sst2 = sst2 (Homo sapiens, UniProt P30874); assay: Calcium release assay in HEK-sst2 cells (Fluo-4NW); type: cell-based; design: expressed in transfected cells; host or cells: HEK293 (HEK-sst2); settings: n ≧ 2
sst2, sequence (P30874 whole entry): as above
Method: Calcium release assay. Intracellular calcium release was measured in HEK-sst2 using the Fluo-4NW Calcium Assay kit as described previously (Magrys, et al. “The role of anti-alpha-enolase autoantibodies in pathogenicity of autoimmune-mediated retinopathy.” J. Clin. Immunol. 2007, 27, 181-192; Michel et al. “The Nef protein of human immunodeficiency virus is a broad-spectrum modulator of chemokine receptor cell surface levels that acts independently of classical motifs for receptor endocytosis and Galphai signaling.” Mol. Biol. Cell. 2006, 17, 3578-3590). In brief, HEK-sst2 cells were seeded (25,000 cells per well) in poly-D-lysine (20 μg/mL) coated 96 well plates and cultured for 1 day at 37° C. and 5% CO2 in culture medium. At the day of the experiment, the cells were washed with assay buffer (1×HBSS, 20 mM HEPES) containing 2.5 mM probenecid, and then loaded with 100 μL/well Fluo-4NW dye in assay buffer containing 2.5 mM probenecid for 30 min at 37° C. and 5% CO2 and then for further 30 min at room temperature. To measure the intracellular calcium mobilization after stimulation with the SRIF analogues to be tested, the dye-loaded cells were transferred to a SpectraMax M2^e (Molecular Devices, Sunnyvale, Calif.). Intracellular calcium mobilization was recorded in a kinetic for 60 sec at room temperature monitoring fluorescence emission at 520 nm (with λex=485 nm) in the presence of the analogues at the concentrations indicated. Maximum fluorescence (Fmax) was measured after the addition of 25 μM ionomycin. Baseline (control) measurements were taken for dye-loaded, untreated cells. Data are shown as percentage of Fmax (% Fmax) as reported previously. (Magrys, et al. J. Clin. Immunol. 2007, 27, 181-192; Michel et al. Mol. Biol. Cell. 2006, 17, 3578-3590). All experiments were repeated at least three times in triplicate.

[1] = Table 3, mean ± SEM when N ≧ 3, read-out: sst1 binding affinity (IC50)
[2] = Table 3, mean ± SEM when N ≧ 3, read-out: sst2 binding affinity (IC50)
[3] = Table 3, mean ± SEM when N ≧ 3, read-out: sst3 binding affinity (IC50)
[4] = Table 3, mean ± SEM when N ≧ 3, read-out: sst4 binding affinity (IC50)
[5] = Table 3, mean ± SEM when N ≧ 3, read-out: sst5 binding affinity (IC50)

Row | Compound | IC50 (hSSTR1; [1]) | IC50 (hSSTR2; [2]) | IC50 (hSSTR3; [3]) | IC50 (hSSTR4; [4]) | IC50 (hSSTR5; [5]) | sst2-internalization tested in vitro in HEK-sst2 cells (function) (human sst2A receptor) | Calcium release tested in vitro in HEK-sst2 cells (function) (sst2) | IC50 (hSSTR1; Table 1, inhibition of radioligand binding to cloned human receptor, read-out: IC50 hSSTR1) | IC50 (hSSTR2; Table 1, inhibition of radioligand binding to cloned human receptor, read-out: IC50 hSSTR2) | IC50 (hSSTR3; Table 1, inhibition of radioligand binding to cloned human receptor, read-out: IC50 hSSTR3) | IC50 (hSSTR4; Table 1, inhibition of radioligand binding to cloned human receptor, read-out: IC50 hSSTR4) | IC50 (hSSTR5; Table 1, inhibition of radioligand binding to cloned human receptor, read-out: IC50 hSSTR5) | sst2 internalization, given alone (human sst2A receptor; FIG. 2, antagonists at 10 μM)
1 | C[C@@H](O)[C@@H]1NC(=O)[C@H](CCCCN)NC(=O)[C@@H](Cc2c[nH]c3ccc(F)cc23)NC(=O)[C@H](Cc2ccc(NC(N)=O)cc2)NC(=O)[C@H](NC(=O)[C@@H](N)Cc2ccc(Cl)cc2)CSSC[C@@H](C(=O)N[C@@H](Cc2ccc3ccccc3c2)C(N)=O)NC1=O [compound 25, H2N-Cpa-c[DCys-Aph(Cbm)-5F-DTrp-Lys-Thr-Cys]-2Nal-NH2] (H-[Phe(4-Cl)][dC][Phe(4-NHCONH2)][dTrp(5-F)]KTC[2Nal]-NH2; disulfide 2-7) | > 1 µM | 0.0049 ± 0.0015 µM | 0.05 ± 0.0058 µM | 0.287 ± 0.064 µM | 0.094 ± 0.034 µM | Antagonist | Antagonist | – | – | – | – | – | –
2 | C[C@@H](O)[C@@H]1NC(=O)[C@H](CCCCN)NC(=O)[C@@H](Cc2c[nH]c3ccccc23)NC(=O)[C@H](Cc2ccc(NC(N)=O)cc2)NC(=O)[C@H](NC(=O)[C@H](Cc2ccc(Cl)cc2)NC(=O)CN2CCN(CC(=O)O)CCN(CC(=O)O)CCN(CC(=O)O)CC2)CSSC[C@@H](C(=O)N[C@@H](Cc2ccc3ccccc3c2)C(N)=O)NC1=O [Peptide No. 14, DOTA-Cpa-c[DCys-Aph(Cbm)-DTrp-Lys-Thr-Cys]-2Nal-NH2] | > 1 µM | 0.0098 ± 0.0012 µM | 0.972 ± 0.212 µM | 0.831 ± 0.082 µM | > 1 µM | Antagonist | Antagonist | > 1 µM | 0.0094 ± 0.0016 µM | > 1 µM | 0.816 ± 0.114 µM | > 1 µM | –
3 | C[C@@H](O)[C@@H]1NC(=O)[C@H](CCCCN)NC(=O)[C@@H](Cc2ccc(NC(N)=O)cc2)NC(=O)[C@H](Cc2ccc(O)cc2)NC(=O)[C@H](NC(=O)[C@@H](N)Cc2ccc([N+](=O)[O-])cc2)CSSC[C@@H](C(=O)N[C@@H](Cc2ccc3ccccc3c2)C(N)=O)NC1=O [compound 4, H2N-pNO2Phe-c[DCys-Tyr-DAph(Cbm)-Lys-Thr-Cys]-2Nal-NH2] (H-[Phe(4-NO2)][dC]Y[dPhe(4-NHCONH2)]KTC[2Nal]-NH2; disulfide 2-7) | > 1 µM | 0.0026 µM | 0.384 µM | > 1 µM | > 1 µM | Antagonist | – | – | – | – | – | – | –
4 | [Tyr^3]-octreotide [reference compound] | – | – | – | – | – | – | agonistic effect | – | – | – | – | – | can induce sst2 internalization
5 | C[C@@H](O)[C@@H]1NC(=O)[C@H](CCCCN)NC(=O)[C@@H](Cc2ccc(NC(N)=O)cc2)NC(=O)C(Cc2ccc(NC(=O)C3CC(=O)NC(=O)N3)cc2)NC(=O)[C@H](NC(=O)[C@@H](N)Cc2ccc(Cl)cc2)CSSC[C@@H](C(=O)N[C@@H](Cc2ccc3ccccc3c2)C(N)=O)NC1=O (stereo partly drawn) [compound 29, H2N-Cpa-c[DCys-Aph(Hor)-DAph(Cbm)-Lys-Thr-Cys]-2Nal-NH2] (H-[Phe(4-Cl)][dC][ξPhe(4-NH2)](ξDihydroorotoyl)[dPhe(4-NHCONH2)]KTC[2Nal]-NH2; disulfide 2-7) | – | – | – | – | – | Antagonist | Antagonist | – | – | – | – | – | –
